Here are results for 22 compounds from US9840513B2 (AbbVie S.à.r.l., priority 2015, dated 2017).

This assay addresses T1, F508delCFTR cell surface expression in CFBE41o-F508delCFTR-HRP cells (Homo sapiens, UniProt P13569, DEL508-508).
T1 construct: fused on or other part: Horseradish peroxidase (HRP) reporter inserted in the fourth exofacial (extracellular) loop of CFTR; expression is doxycycline-inducible
As to the kind of experiment: Cell Surface Expression-Horse Radish Peroxidase (CSE-HRP) Assay. The class given is cell-based. To be noted: for EC50: CFBE41o-F508delCFTR-HRP cells, 18-24 hours at 33° C., 8-point curve, highest concentration 20 μM; for Maximum % activity (%): maximum at any tested concentration, normalized to on-plate positive control (3 μM). The essentials: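 Correctors incubated 18-24 h at 33 °C on doxycycline-induced (0.5 μg/mL, 72 h) CFBE41o-F508delCFTR-HRP cells, 3-fold series from 20 μM. After DPBS washes, luminol luminescence read; activity expressed relative to DMSO and a 3 μM positive control, EC50 fitted from triplicate plates.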

T1 sequence (P13569 with tags, fused parts or gaps DEL508-508 limits assumed): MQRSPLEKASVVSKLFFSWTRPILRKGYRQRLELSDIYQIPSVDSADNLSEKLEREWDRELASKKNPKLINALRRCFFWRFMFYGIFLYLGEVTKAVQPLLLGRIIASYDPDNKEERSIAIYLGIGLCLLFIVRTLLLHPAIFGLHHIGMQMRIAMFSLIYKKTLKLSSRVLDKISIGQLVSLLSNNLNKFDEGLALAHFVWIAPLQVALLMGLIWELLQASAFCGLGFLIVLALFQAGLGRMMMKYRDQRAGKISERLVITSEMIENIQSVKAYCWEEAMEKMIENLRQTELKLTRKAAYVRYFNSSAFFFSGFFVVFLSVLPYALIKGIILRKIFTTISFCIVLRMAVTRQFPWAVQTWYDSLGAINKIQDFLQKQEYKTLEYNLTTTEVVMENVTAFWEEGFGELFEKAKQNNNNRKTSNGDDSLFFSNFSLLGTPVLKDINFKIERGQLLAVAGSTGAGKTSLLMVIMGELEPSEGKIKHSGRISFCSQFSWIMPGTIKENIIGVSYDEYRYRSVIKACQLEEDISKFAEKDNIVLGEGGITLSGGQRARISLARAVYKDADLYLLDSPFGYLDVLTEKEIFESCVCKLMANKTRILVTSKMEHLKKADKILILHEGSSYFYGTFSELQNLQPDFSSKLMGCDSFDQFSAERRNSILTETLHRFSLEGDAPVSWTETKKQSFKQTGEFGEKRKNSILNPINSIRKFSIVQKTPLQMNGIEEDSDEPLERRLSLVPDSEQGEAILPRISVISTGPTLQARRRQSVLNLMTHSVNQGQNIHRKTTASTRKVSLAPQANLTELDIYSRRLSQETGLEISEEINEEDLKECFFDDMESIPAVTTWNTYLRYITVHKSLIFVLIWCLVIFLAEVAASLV
T1 sequence (P13569 919-1480 limits assumed, stated change not applied): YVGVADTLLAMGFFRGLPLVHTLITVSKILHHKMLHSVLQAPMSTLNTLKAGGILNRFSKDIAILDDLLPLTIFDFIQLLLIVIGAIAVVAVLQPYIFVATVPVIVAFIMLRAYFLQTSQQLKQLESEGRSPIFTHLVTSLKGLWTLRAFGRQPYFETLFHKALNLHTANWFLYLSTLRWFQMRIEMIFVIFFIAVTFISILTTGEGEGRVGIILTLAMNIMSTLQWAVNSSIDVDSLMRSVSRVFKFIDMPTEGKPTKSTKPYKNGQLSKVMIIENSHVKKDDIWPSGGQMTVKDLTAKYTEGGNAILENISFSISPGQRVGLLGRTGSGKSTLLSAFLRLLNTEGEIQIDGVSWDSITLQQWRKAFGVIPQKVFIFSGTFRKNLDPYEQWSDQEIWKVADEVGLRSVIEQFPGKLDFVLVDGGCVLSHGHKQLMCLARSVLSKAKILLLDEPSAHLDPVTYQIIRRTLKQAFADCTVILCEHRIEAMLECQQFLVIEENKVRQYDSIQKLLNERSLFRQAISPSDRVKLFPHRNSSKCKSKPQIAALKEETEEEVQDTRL

One may read the EC50 as the concentration that produces a half-maximal response. Low values mean higher potency in that assay, high ones lower potency in that assay. For the compound `C[C@]1(C(=O)Nc2cccc(NC[C@H](O)CO)n2)COc2cc3c(cc21)OC(F)(F)O3` [Example 93, (7R)—N-(6-{[(2S)-2,3-dihydroxypropyl]amino}pyridin-2-yl)-2,2-difluoro-7-methyl-6,7-dihydro-2H-furo[2,3-f][1,3]benzodioxole-7-carboxamide], the midpoint of the response, the EC50, lay at 1.53 µM and the “Maximum % activity (%)” value was 89%.
On the same counts, the results for `C[C@]1(C(=O)Nc2cnc(N3CCC(C(=O)O)C3)cn2)COc2cc3c(cc21)OC(F)(F)O3` (stereo partly drawn) [Example 94, 1-(5-{[(7R)-2,2-difluoro-7-methyl-6,7-dihydro-2H-furo[2,3-f][1,3]benzodioxole-7-carbonyl]amino}pyrazin-2-yl)pyrrolidine-3-carboxylic acid] are above 20 µM and 8%.
Taken in the same sequence, the figures for `CC1(C(=O)O)CN(c2cccc(NC(=O)[C@@]3(C)COc4cc5c(cc43)OC(F)(F)O5)n2)C1` [Example 96, 1-(6-{[(7R)-2,2-difluoro-7-methyl-6,7-dihydro-2H-furo[2,3-f][1,3]benzodioxole-7-carbonyl]amino}pyridin-2-yl)-3-methylazetidine-3-carboxylic acid] were 1.31 µM and 139%.
`C[C@]1(C(=O)Nc2cc(Br)cn(-c3ccc(C(=O)O)cc3)c2=O)COc2cc3c(cc21)OC(F)(F)O3` [Example 97, 4-[5-bromo-3-{[(7R)-2,2-difluoro-7-methyl-6,7-dihydro-2H-furo[2,3-f][1,3]benzodioxole-7-carbonyl]amino}-2-oxopyridin-1(2H)-yl]benzoic acid]: a half-maximal effect (EC50) was put at 0.48 µM and the “Maximum % activity (%)” value was 148%.
Taken in the same sequence, the figures for `C[C@]1(C(=O)Nc2cc(Br)cn(C[C@@H](O)CO)c2=O)COc2cc3c(cc21)OC(F)(F)O3` [Example 98, (7R)—N-{5-bromo-1-[(2R)-2,3-dihydroxypropyl]-2-oxo-1,2-dihydropyridin-3-yl}-2,2-difluoro-7-methyl-6,7-dihydro-2H-furo[2,3-f][1,3]benzodioxole-7-carboxamide] were 1.14 µM and 143%.
On the same counts, the results for `C[C@]1(C(=O)Nc2cc(-c3ccccc3)cn(-c3ccc(C(=O)O)cc3)c2=O)COc2cc3c(cc21)OC(F)(F)O3` [Example 99, 4-[3-{[(7R)-2,2-difluoro-7-methyl-6,7-dihydro-2H-furo[2,3-f][1,3]benzodioxole-7-carbonyl]amino}-2-oxo-5-phenylpyridin-1(2H)-yl]benzoic acid] are 0.23 µM and 71%.
On the same counts, the results for `C[C@]1(C(=O)Nc2cc(-c3ccccc3)cn(C[C@@H](O)CO)c2=O)COc2cc3c(cc21)OC(F)(F)O3` [Example 100, (7R)—N-{1-[(2R)-2,3-dihydroxypropyl]-2-oxo-5-phenyl-1,2-dihydropyridin-3-yl}-2,2-difluoro-7-methyl-6,7-dihydro-2H-furo[2,3-f][1,3]benzodioxole-7-carboxamide] are 0.45 µM and 85%.
With `CC1(C)CCN(c2cccc(NC(=O)[C@@]3(C)COc4cc5c(cc43)OC(F)(F)O5)n2)C1` [Example 101, (7R)—N-[6-(3,3-dimethylpyrrolidin-1-yl)pyridin-2-yl]-2,2-difluoro-7-methyl-6,7-dihydro-2H-furo[2,3-f][1,3]benzodioxole-7-carboxamide], a half-maximal effect (EC50) was put at 0.87 µM and the “Maximum % activity (%)” value is 116%.
Taken in the same sequence, the figures for `C[C@]1(C(=O)Nc2cnc(N3CCC[C@H]3C(=O)O)cn2)COc2cc3c(cc21)OC(F)(F)O3` [Example 102, 1-(5-{[(7R)-2,2-difluoro-7-methyl-6,7-dihydro-2H-furo[2,3-f][1,3]benzodioxole-7-carbonyl]amino}pyrazin-2-yl)proline] were 8.29 µM and 61%.
For `Cc1cc(NC(=O)[C@@]2(C)COc3cc4c(cc32)OC(F)(F)O4)nc(-c2cccc(C(=O)O)c2)c1` [Example 103, 3-(6-{[(7R)-2,2-difluoro-7-methyl-6,7-dihydro-2H-furo[2,3-f][1,3]benzodioxole-7-carbonyl]amino}-4-methylpyridin-2-yl)benzoic acid], a half-maximal effect (EC50) was put at 1.72 µM and the “Maximum % activity (%)” value is listed as 170%.
On the same counts, the results for `CC1(C)OC[C@H]([C@@H](O)Cn2nc(-c3ccccc3)cc(NC(=O)[C@@]3(C)COc4cc5c(cc43)OC(F)(F)O5)c2=O)O1` [Example 104, (7R)—N-(2-{(2S)-2-[(4R)-2,2-dimethyl-1,3-dioxolan-4-yl]-2-hydroxyethyl}-3-oxo-6-phenyl-2,3-dihydropyridazin-4-yl)-2,2-difluoro-7-methyl-6,7-dihydro-2H-furo[2,3-f][1,3]benzodioxole-7-carboxamide] are above 20 µM and 16%.
Taken in the same sequence, the figures for `C[C@]1(C(=O)Nc2cc(-c3ccccc3)nn(C[C@H](O)[C@H](O)CO)c2=O)COc2cc3c(cc21)OC(F)(F)O3` [Example 105, (7R)-2,2-difluoro-7-methyl-N-{3-oxo-6-phenyl-2-[(2S,3R)-2,3,4-trihydroxybutyl]-2,3-dihydropyridazin-4-yl}-6,7-dihydro-2H-furo[2,3-f][1,3]benzodioxole-7-carboxamide] were above 20 µM and 5%.
Taken in the same sequence, the figures for `CC1(C)OC[C@H]([C@H](O)Cn2nc(-c3ccccc3)cc(NC(=O)[C@@]3(C)COc4cc5c(cc43)OC(F)(F)O5)c2=O)O1` [Example 106, (7R)—N-(2-{(2R)-2-[(4R)-2,2-dimethyl-1,3-dioxolan-4-yl]-2-hydroxyethyl}-3-oxo-6-phenyl-2,3-dihydropyridazin-4-yl)-2,2-difluoro-7-methyl-6,7-dihydro-2H-furo[2,3-f][1,3]benzodioxole-7-carboxamide] were 14.1 µM and 18%.
`CN1CC2CN(c3cccc(NC(=O)C4(C)COc5cc6c(cc54)OC(F)(F)O6)n3)CC2C1` (centres unmarked) [Example 107, 2,2-difluoro-7-methyl-N-[6-(5-methylhexahydropyrrolo[3,4-c]pyrrol-2(1H)-yl)pyridin-2-yl]-6,7-dihydro-2H-furo[2,3-f][1,3]benzodioxole-7-carboxamide]: the concentration giving a half-maximal response (EC50) came to 3.04 µM and the “Maximum % activity (%)” value was 136%.
On the same counts, the results for `CC(C)CN1CC2CN(c3cccc(NC(=O)C4(C)COc5cc6c(cc54)OC(F)(F)O6)n3)CC2C1` (centres unmarked) [Example 108, 2,2-difluoro-7-methyl-N-{6-[5-(2-methylpropyl)hexahydropyrrolo[3,4-c]pyrrol-2(1H)-yl]pyridin-2-yl}-6,7-dihydro-2H-furo[2,3-f][1,3]benzodioxole-7-carboxamide] are 1.99 µM and 89%.
As for `C[C@]1(C(=O)Nc2cccc(N3CCC(S(C)(=O)=O)C3)n2)COc2cc3c(cc21)OC(F)(F)O3` (stereo partly drawn) [Example 109, (7R)-2,2-difluoro-N-{6-[3-(methanesulfonyl)pyrrolidin-1-yl]pyridin-2-yl}-7-methyl-6,7-dihydro-2H-furo[2,3-f][1,3]benzodioxole-7-carboxamide], a half-maximal effect (EC50) was put at 0.58 µM and the “Maximum % activity (%)” value turned out to be 89%.
On the same counts, the results for `C[C@]1(C(=O)Nc2cccc(N3CCC(CO)(CCl)C3)n2)COc2cc3c(cc21)OC(F)(F)O3` (stereo partly drawn) [Example 110, (7R)—N-{6-[3-(chloromethyl)-3-(hydroxymethyl)pyrrolidin-1-yl]pyridin-2-yl}-2,2-difluoro-7-methyl-6,7-dihydro-2H-furo[2,3-f][1,3]benzodioxole-7-carboxamide] are 3.02 µM and 120%.
As to `C[C@]1(C(=O)Nc2cccc(N3CC[C@@H](S(C)(=O)=O)C3)n2)COc2cc3c(cc21)OC(F)(F)O3` [Example 111, (7R)-2,2-difluoro-N-{6-[(3R)-3-(methanesulfonyl)pyrrolidin-1-yl]pyridin-2-yl}-7-methyl-6,7-dihydro-2H-furo[2,3-f][1,3]benzodioxole-7-carboxamide], the EC50 turned out to be 0.54 µM and the “Maximum % activity (%)” value was 91%.
Taken in the same sequence, the figures for `COC(=O)[C@H]1CN(c2cccc(NC(=O)[C@@]3(C)COc4cc5c(cc43)OC(F)(F)O5)n2)C[C@@H]1c1ccccc1` [Example 112, methyl (3R,4S)-1-(6-{[(7R)-2,2-difluoro-7-methyl-6,7-dihydro-2H-furo[2,3-f][1,3]benzodioxole-7-carbonyl]amino}pyridin-2-yl)-4-phenylpyrrolidine-3-carboxylate] were 0.99 µM and 131%.
For `C[C@]1(C(=O)Nc2cccc(N3CCC(c4ccc(F)cc4)C3)n2)COc2cc3c(cc21)OC(F)(F)O3` (stereo partly drawn) [Example 114, (7R)-2,2-difluoro-N-{6-[3-(4-fluorophenyl)pyrrolidin-1-yl]pyridin-2-yl}-7-methyl-6,7-dihydro-2H-furo[2,3-f][1,3]benzodioxole-7-carboxamide], the half-maximal effective concentration (EC50) amounted to 0.75 µM and the “Maximum % activity (%)” value is reported as 98%.
Taken in the same sequence, the figures for `CC1CN(c2cccc(NC(=O)[C@@]3(C)COc4cc5c(cc43)OC(F)(F)O5)n2)CC1C(=O)O` (stereo partly drawn) [Example 116, 1-(6-{[(7R)-2,2-difluoro-7-methyl-6,7-dihydro-2H-furo[2,3-f][1,3]benzodioxole-7-carbonyl]amino}pyridin-2-yl)-4-methylpyrrolidine-3-carboxylic acid] were 1.1 µM and 136%.
Taken in the same sequence, the figures for `C[C@]1(C(=O)Nc2cccc(N3CC4CCCC4(C(=O)O)C3)n2)COc2cc3c(cc21)OC(F)(F)O3` (stereo partly drawn) [Example 117, 2-(6-{[(7R)-2,2-difluoro-7-methyl-6,7-dihydro-2H-furo[2,3-f][1,3]benzodioxole-7-carbonyl]amino}pyridin-2-yl)hexahydrocyclopenta[c]pyrrole-3a(1H)-carboxylic acid] were 1.39 µM and 147%.
